Tests used:
ECHCG (Barnyardgrass) [1] = assay: Postemergence herbicidal evaluation; type: in vivo, Echinochloa crus-galli; details: postemergence
In short: (§1)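 ~2-wk seedlings; postemergence spray, 40 psi; vehicle 1:1 acetone:water + 0.5% Tween 20; rate ≈0.0156–0.500 kg/ha; greenhouse hold; scored 4–5 wk after treatment, 0–9 scale vs control; repeat tests averaged.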

CYPIR (Rice Flatsedge) = assay: Postemergence weed control under flooded paddy conditions; type: in vivo, Cyperus iria; details: postemergence weeds, rated 3 to 4 weeks after treatment
In short: (§2)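 Containers holding 3–5 cm weeds and rice at 1.5–2.5 leaves are flooded to 1.5–3 cm above soil. Compound in 50/50 v/v aqueous/acetone is then added directly to the water, about 0.0313–0.500 kg/ha. Plants are kept in the greenhouse and rated 0–9 visually at 3–4 weeks.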

[2] = test system: TRZAWR (Wheat, Winter, cv Riband); assay: Preemergence herbicidal evaluation; type: in vivo, Triticum aestivum; details: rated 4-5 weeks after treatment
In short: (§3)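 Seeds were mixed with potting soil and planted on about one inch of soil, then sprayed with test compound in aqueous acetone at about 0.0156 to 0.500 kg per hectare. Plants grew under standard greenhouse care and were visually rated 0-9 against untreated controls 4-5 weeks post-treatment.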

ECHCG (Barnyardgrass) [3] = assay: Preemergence herbicidal evaluation; type: in vivo, Echinochloa crus-galli; details: rated 4-5 weeks after treatment
In short: as §3

ZEAMX (Corn, Field) [4] = assay: Postemergence herbicidal evaluation; type: in vivo, Zea mays; details: postemergence
In short: as §1

[5] = test system: CHEAL (Lambsquarters, Common); assay: Postemergence herbicidal evaluation; type: in vivo, Chenopodium album; details: postemergence
In short: as §1

ZEAMX (Corn, Field) [6] = assay: Preemergence herbicidal evaluation; type: in vivo, Zea mays; details: rated 4-5 weeks after treatment
In short: as §3

ORYSAT (Rice, Tebonnet) = assay: Postemergence herbicidal evaluation; type: in vivo, Oryza sativa, (L.) Tebonnet; details: postemergence
In short: as §1

[7] = test system: CHEAL (Lambsquarters, Common); assay: Preemergence herbicidal evaluation; type: in vivo, Chenopodium album; details: rated 4-5 weeks after treatment
In short: as §3

CASOB (Sicklepod) = assay: Preemergence herbicidal evaluation; type: in vivo, Cassia obtusifolia; details: rated 4-5 weeks after treatment
In short: as §3

[8] = test system: GLXMAW (Soybean, Williams); assay: Preemergence herbicidal evaluation; type: in vivo, Glycine max, (L.) Merr. cv Williams; details: rated 4-5 weeks after treatment
In short: as §3

[9] = test system: IPOHE (Morningglory, Ivyleaf); assay: Postemergence herbicidal evaluation; type: in vivo, Ipomoea hederacea; details: postemergence
In short: as §1

ABUTH (Velvetleaf) [10] = assay: Postemergence herbicidal evaluation; type: in vivo, Abutilon theophrasti; details: postemergence
In short: as §1

CYPSE (Flatsedge) = assay: Postemergence weed control under flooded paddy conditions; type: in vivo, Cyperus serotinus; details: postemergence weeds, rated 3 to 4 weeks after treatment
In short: as §2

ABUTH (Velvetleaf) [11] = assay: Preemergence herbicidal evaluation; type: in vivo, Abutilon theophrasti; details: rated 4-5 weeks after treatment
In short: as §3

SETVI (Foxtail, Green) = assay: Postemergence herbicidal evaluation; type: in vivo, Setaria viridis; details: postemergence
In short: as §1

[12] = test system: IPOHE (Morningglory, Ivyleaf); assay: Preemergence herbicidal evaluation; type: in vivo, Ipomoea hederacea; details: rated 4-5 weeks after treatment
In short: as §3

CCOC(=O)C(c1ccc(Cl)cc1)N1C(=O)CSC1=Nc1cc(-n2c(=O)cc(C(F)(F)F)n(C)c2=O)c(F)cc1Cl (racemic) [Compound 79, Ethyl α-(p-chlorophenyl)-2-{{2-chloro-5-[3,6-dihydro-3-methyl-2,6-dioxo-4-(trifluoromethyl)-1(2H)-pyrimidinyl]-4-fluorophenyl}imino}-4-oxo-3-thiazolidineacetate, DL-]
ECHCG herbicidal rating (ECHCG (Barnyardgrass) [1]; rate 0.0158 kg/ha): 1.0
ECHCG herbicidal rating (ECHCG (Barnyardgrass) [1]; rate 0.0315 kg/ha): 1.0
ECHCG herbicidal rating (ECHCG (Barnyardgrass) [1]; rate 0.0630 kg/ha): 1.0
Herbicidal rating CYPIR (CYPIR (Rice Flatsedge); Rate 0.0313 kg/ha): 0.0
Herbicidal rating CYPIR (CYPIR (Rice Flatsedge); Rate 0.0625 kg/ha): 0.0
Herbicidal rating CYPIR (CYPIR (Rice Flatsedge); Rate 0.1250 kg/ha): 2.0
Herbicidal rating CYPIR (CYPIR (Rice Flatsedge); Rate 0.2500 kg/ha): 6.0
Preemergence herbicidal rating TRZAWR ([2]; rate 0.0313 kg/ha): 0.0
Preemergence herbicidal rating TRZAWR ([2]; rate 0.0625 kg/ha): 1.0
Preemergence herbicidal rating TRZAWR ([2]; rate 0.1250 kg/ha): 0.0
Preemergence herbicidal rating TRZAWR ([2]; rate 0.2500 kg/ha): 1.0
Preemergence herbicidal rating ECHCG (ECHCG (Barnyardgrass) [3]; rate 0.0313 kg/ha): 0.0
Preemergence herbicidal rating ECHCG (ECHCG (Barnyardgrass) [3]; rate 0.0625 kg/ha): 0.0
Preemergence herbicidal rating ECHCG (ECHCG (Barnyardgrass) [3]; rate 0.1250 kg/ha): 0.0
Preemergence herbicidal rating ECHCG (ECHCG (Barnyardgrass) [3]; rate 0.2500 kg/ha): 0.0
ZEAMX herbicidal rating (ZEAMX (Corn, Field) [4]; rate 0.0158 kg/ha): 5.0
ZEAMX herbicidal rating (ZEAMX (Corn, Field) [4]; rate 0.0315 kg/ha): 4.5
ZEAMX herbicidal rating (ZEAMX (Corn, Field) [4]; rate 0.0630 kg/ha): 5.0
CHEAL herbicidal rating ([5]; rate 0.0158 kg/ha): 1.0
CHEAL herbicidal rating ([5]; rate 0.0315 kg/ha): 7.0
CHEAL herbicidal rating ([5]; rate 0.0630 kg/ha): 7.0
Preemergence herbicidal rating ZEAMX (ZEAMX (Corn, Field) [6]; rate 0.0313 kg/ha): 1.0
Preemergence herbicidal rating ZEAMX (ZEAMX (Corn, Field) [6]; rate 0.0625 kg/ha): 1.0
Preemergence herbicidal rating ZEAMX (ZEAMX (Corn, Field) [6]; rate 0.1250 kg/ha): 1.0
Preemergence herbicidal rating ZEAMX (ZEAMX (Corn, Field) [6]; rate 0.2500 kg/ha): 2.0
ORYSAT herbicidal rating (ORYSAT (Rice, Tebonnet); rate 0.0158 kg/ha): 2.5
ORYSAT herbicidal rating (ORYSAT (Rice, Tebonnet); rate 0.0315 kg/ha): 2.5
ORYSAT herbicidal rating (ORYSAT (Rice, Tebonnet); rate 0.0630 kg/ha): 4.0
Preemergence herbicidal rating CHEAL ([7]; rate 0.0313 kg/ha): 9.0
Preemergence herbicidal rating CHEAL ([7]; rate 0.0625 kg/ha): 9.0
Preemergence herbicidal rating CHEAL ([7]; rate 0.1250 kg/ha): 9.0
Preemergence herbicidal rating CHEAL ([7]; rate 0.2500 kg/ha): 9.0
Preemergence herbicidal rating CASOB (CASOB (Sicklepod); rate 0.0313 kg/ha): 1.0
Preemergence herbicidal rating CASOB (CASOB (Sicklepod); rate 0.0625 kg/ha): 0.0
Preemergence herbicidal rating CASOB (CASOB (Sicklepod); rate 0.1250 kg/ha): 0.0
Preemergence herbicidal rating CASOB (CASOB (Sicklepod); rate 0.2500 kg/ha): 1.0
Preemergence herbicidal rating GLXMAW ([8]; rate 0.0313 kg/ha): 1.0
Preemergence herbicidal rating GLXMAW ([8]; rate 0.0625 kg/ha): 1.0
Preemergence herbicidal rating GLXMAW ([8]; rate 0.1250 kg/ha): 0.0
Preemergence herbicidal rating GLXMAW ([8]; rate 0.2500 kg/ha): 2.0
IPOHE herbicidal rating ([9]; rate 0.0158 kg/ha): 9.0
IPOHE herbicidal rating ([9]; rate 0.0315 kg/ha): 9.0
IPOHE herbicidal rating ([9]; rate 0.0630 kg/ha): 9.0
ABUTH herbicidal rating (ABUTH (Velvetleaf) [10]; rate 0.0158 kg/ha): 9.0
ABUTH herbicidal rating (ABUTH (Velvetleaf) [10]; rate 0.0315 kg/ha): 9.0
ABUTH herbicidal rating (ABUTH (Velvetleaf) [10]; rate 0.0630 kg/ha): 9.0
Herbicidal rating CYPSE (CYPSE (Flatsedge); Rate 0.0313 kg/ha): 0.0
Herbicidal rating CYPSE (CYPSE (Flatsedge); Rate 0.0625 kg/ha): 0.0
Herbicidal rating CYPSE (CYPSE (Flatsedge); Rate 0.1250 kg/ha): 0.0
Herbicidal rating CYPSE (CYPSE (Flatsedge); Rate 0.2500 kg/ha): 9.0
Preemergence herbicidal rating ABUTH (ABUTH (Velvetleaf) [11]; rate 0.0313 kg/ha): 0.0
Preemergence herbicidal rating ABUTH (ABUTH (Velvetleaf) [11]; rate 0.0625 kg/ha): 2.0
Preemergence herbicidal rating ABUTH (ABUTH (Velvetleaf) [11]; rate 0.1250 kg/ha): 6.0
Preemergence herbicidal rating ABUTH (ABUTH (Velvetleaf) [11]; rate 0.2500 kg/ha): 9.0
SETVI herbicidal rating (SETVI (Foxtail, Green); rate 0.0158 kg/ha): 4.0
SETVI herbicidal rating (SETVI (Foxtail, Green); rate 0.0315 kg/ha): 1.0
SETVI herbicidal rating (SETVI (Foxtail, Green); rate 0.0630 kg/ha): 1.0
Preemergence herbicidal rating IPOHE ([12]; rate 0.0313 kg/ha): 0.0
Preemergence herbicidal rating IPOHE ([12]; rate 0.0625 kg/ha): 0.0
Preemergence herbicidal rating IPOHE ([12]; rate 0.1250 kg/ha): 0.0
Preemergence herbicidal rating IPOHE ([12]; rate 0.2500 kg/ha): 1.0

From patent publication US20020137929A1, “1 - (3-heterocyclylphenyl) isothiourea, -isourea, -guanidine and -amidine herbicidal agents” (Intellectual Property Department, BASF Aktiengesellschaft, priority 1998, published 2002)
